Data published in paper PMC4715021, “^177Lu-labelled macrocyclic bisphosphonates for targeting bone metastasis in cancer treatment” (EJNMMI Research, 2016).
Values joined by “and” are separate entries in the source; they are usually repeats but may differ in a detail not shown here. Equal values may be shown once.

Columns and labels:
[1] = Ex vivo biodistribution of 177Lu-complexes in Wistar rats; conditions: for Biodistribution of radioactivity, Adipose tissue / Biodistribution of radioactivity, Adrenal gland / Biodistribution of radioactivity, Blood / Biodistribution of radioactivity, Brain / Biodistribution of radioactivity, Femur / Biodistribution of radioactivity, Harderian gland / Biodistribution of radioactivity, Heart / Biodistribution of radioactivity, Kidneys / Biodistribution of radioactivity, Liver / Biodistribution of radioactivity, Lung / Biodistribution of radioactivity, Muscle / Biodistribution of radioactivity, Pancreas / Biodistribution of radioactivity, Spleen / Biodistribution of radioactivity, Testes / Biodistribution of radioactivity, Thymus: i.v.
From the text: (§1) The experiments were realized corresponding to the German animal welfare regulations and institutional guidelines and with the permission of the local animal research committee at the Landesdirektion, Dresden. All experimental procedures are following the guidelines of the European Convention for the Protection of Vertebrate Animals used for Experimental and other Scientific Purposes (ETS No. 123). Male Wistar rats weighing 157.69 ± 17.10 g (mean ± SD, N = 35) were purchased from Unilever (HsdCpb:WU, Harlan Winkelmann, Borchen, Germany). Anesthetization was initiated and maintained by desflurane, and animals were put in the supine position and placed on a heating pad to maintain body temperature. A needle catheter was used for administration of the tracers in the tail vein. A second catheter was introduced into the right femoral artery for the extraction of blood samples for metabolite analysis, which was routinely done during SPECT/CT measurements.
The male Wistar rats received a short-term anesthetization by desflurane inhalation. Mean activities of 2.36 ± 0.27 MBq/kg of the ^177Lu-labelled tracers in isotonic saline were injected in a volume of 0.5 mL in the tail vein, with the following specific details: [^177Lu]citrate: 2.56 ± 0.07 MBq/kg, 128.58 body weight (BW, g), n = 4 (g); [^177Lu]BPAMD: 2.33 ± 0.11 MBq/kg, 159.41 BW (g), n = 4 (g); [^177Lu]BPAPD: 2.58 ± 0.24 MBq/kg, 156.38 BW (g), n = 4 (g); [^177Lu]BPPED: 2.27 ± 0.25 MBq/kg, 153.43 BW (g), n = 4 (g); [^177Lu]NO2AP^BP: 2.52 ± 0.25 MBq/kg, 173.82 BW (g), n = 4 (g); [^177Lu]DOTA(M^BP)2: 1.80 ± 0.10 MBq/kg, 181.64 BW (g), n = 4 (g); [^177Lu]DO2A(P^BP)2: 2.46 ± 0.15 MBq/kg, 150.60 BW (g), n = 4 (g). The compounds [^177Lu]DOTA(M^BP)2, [^177Lu]BPPED, and [^177Lu]BPAMD were further chosen for a biodistribution study after 8 days p.i. A mean activity of 19.0 ± 2.5 MBq/kg was injected. Animals were sacrificed after 5 min, 60 min, and 8 days p.i. Organs of interest were excised rapidly and weighed, and the ^177Lu activity was determined with a Wallac WIZARD automatic gamma counter (PerkinElmer, Germany) and decay corrected. The distribution data are expressed in %ID or are normalized to the BW as standard uptake value (SUV), which was calculated with the formula: SUV = (activity per g tissue)/(injected activity) × BW. The skeleton weight was calculated using the following: skeleton weight = 9.66 + 0.0355 × BW, and the total activities associated with the skeleton were calculated by using the activity concentration in the femur and the total skeleton weight.

[2] = Metabolite analysis and in vivo stability, arterial blood and urine samples; design: species or system Wistar rats
From the text: as §1
Arterial blood plasma samples were taken during SPECT/CT examinations after 1, 3, 5, 10, 20, 30, 60, and 120 min. p.i., and the in vivo metabolism of [^177Lu]BPAMD, [^177Lu]BPAPD, [^177Lu]BPPED, [^177Lu]NO2AP^BP, [^177Lu]DOTA(M^BP)2, and [^177Lu]DO2A(P^BP)2 was analyzed. Plasma was separated by centrifugation (3 min, 11,000×g) followed by precipitation of the plasma proteins with ice-cold methanol (1.5 parts per 1 part plasma) and centrifugation (3 min, 11,000×g). The supernatants were analyzed by radio-TLC and HPLC using the abovementioned methods for quality control. Additionally, urine samples were treated in the same way prior radio-TLC and radio-HPLC analysis.

[3] = 5 min p.i., mean of four animals
[4] = 60 min p.i., mean of four animals
[5] = 8 days p.i., mean for five animals

O=C(O)CN1CCN(CC(=O)O)CCN(CP(=O)(O)CC(P(=O)(O)O)P(=O)(O)O)CCN(CC(=O)O)CC1 [[^177Lu]BPPED, metal not drawn]
Ratio Bone/Adipose tissue ([1]; 5 min p.i.): 17.3
Ratio Bone/Adrenal gland ([1]; 5 min p.i.): 5.9
Ratio Bone/Blood ([1]; 5 min p.i.): 3.2
Ratio Bone/Brain ([1]; 5 min p.i.): 104.0
Ratio Bone/Harderian gland ([1]; 5 min p.i.): 10.4
Ratio Bone/Heart ([1]; 5 min p.i.): 8.0
Ratio Bone/Kidneys ([1]; 5 min p.i.): 1.3
Ratio Bone/Liver ([1]; 5 min p.i.): 8.7
Ratio Bone/Lung ([1]; 5 min p.i.): 5.5
Ratio Bone/Muscle ([1]; 5 min p.i.): 17.3
Ratio Bone/Pancreas ([1]; 5 min p.i.): 11.2
Ratio Bone/Spleen ([1]; 5 min p.i.): 10.7
Ratio Bone/Testes ([1]; 5 min p.i.): 11.6
Ratio Bone/Thymus ([1]; 5 min p.i.): 10.9
Biodistribution of radioactivity, Adipose tissue [1, 3]: 0.24 SUV
Biodistribution of radioactivity, Adrenal gland [1, 3]: 0.70 SUV
Biodistribution of radioactivity, Blood [1, 3]: 1.30 SUV
Biodistribution of radioactivity, Brain [1, 3]: 0.04 SUV
Biodistribution of radioactivity, Femur [1, 3]: 4.16 SUV
Biodistribution of radioactivity, Harderian gland [1, 3]: 0.40 SUV
Biodistribution of radioactivity, Heart [1, 3]: 0.52 SUV
Biodistribution of radioactivity, Kidneys [1, 3]: 3.09 SUV
Biodistribution of radioactivity, Liver [1, 3]: 0.48 SUV
Biodistribution of radioactivity, Lung [1, 3]: 0.75 SUV
Biodistribution of radioactivity, Muscle [1, 3]: 0.24 SUV
Biodistribution of radioactivity, Pancreas [1, 3]: 0.37 SUV
Biodistribution of radioactivity, Spleen [1, 3]: 0.39 SUV
Biodistribution of radioactivity, Testes [1, 3]: 0.36 SUV
Biodistribution of radioactivity, Thymus [1, 3]: 0.38 SUV
Ratio Bone/Adipose tissue ([1]; 60 min p.i.): 269.7
Ratio Bone/Adrenal gland ([1]; 60 min p.i.): 72.5
Ratio Bone/Blood ([1]; 60 min p.i.): 92.9
Ratio Bone/Brain ([1]; 60 min p.i.): 419.9
Ratio Bone/Harderian gland ([1]; 60 min p.i.): 36.4
Ratio Bone/Heart ([1]; 60 min p.i.): 141.1
Ratio Bone/Kidneys ([1]; 60 min p.i.): 14.9
Ratio Bone/Liver ([1]; 60 min p.i.): 42.3
Ratio Bone/Lung ([1]; 60 min p.i.): 67.5
Ratio Bone/Muscle ([1]; 60 min p.i.): 355.8
Ratio Bone/Pancreas ([1]; 60 min p.i.): 181.6
Ratio Bone/Spleen ([1]; 60 min p.i.): 41.0
Ratio Bone/Testes ([1]; 60 min p.i.): 185.1
Ratio Bone/Thymus ([1]; 60 min p.i.): 212.0
Biodistribution of radioactivity, Adipose tissue [1, 4]: 0.02 SUV
Biodistribution of radioactivity, Adrenal gland [1, 4]: 0.08 SUV
Biodistribution of radioactivity, Blood [1, 4]: 0.06 SUV
Biodistribution of radioactivity, Brain [1, 4]: 0.01 SUV
Biodistribution of radioactivity, Femur [1, 4]: 5.67 ± 0.10 SUV and 5.67 SUV
Biodistribution of radioactivity, Harderian gland [1, 4]: 0.16 SUV
Biodistribution of radioactivity, Heart [1, 4]: 0.04 SUV
Biodistribution of radioactivity, Kidneys [1, 4]: 0.38 SUV
Biodistribution of radioactivity, Liver [1, 4]: 0.13 SUV
Biodistribution of radioactivity, Lung [1, 4]: 0.08 SUV
Biodistribution of radioactivity, Muscle [1, 4]: 0.02 SUV
Biodistribution of radioactivity, Pancreas [1, 4]: 0.03 SUV
Biodistribution of radioactivity, Spleen [1, 4]: 0.14 SUV
Biodistribution of radioactivity, Testes [1, 4]: 0.03 SUV
Biodistribution of radioactivity, Thymus [1, 4]: 0.03 SUV
Ratio Bone/Adipose tissue ([1]; 8 days p.i.): 1231
Ratio Bone/Adrenal gland ([1]; 8 days p.i.): 159
Ratio Bone/Blood ([1]; 8 days p.i.): 5123
Ratio Bone/Brain ([1]; 8 days p.i.): 365
Ratio Bone/Harderian gland ([1]; 8 days p.i.): 46
Ratio Bone/Heart ([1]; 8 days p.i.): 653
Ratio Bone/Kidneys ([1]; 8 days p.i.): 59
Ratio Bone/Liver ([1]; 8 days p.i.): 189
Ratio Bone/Lung ([1]; 8 days p.i.): 637
Ratio Bone/Muscle ([1]; 8 days p.i.): 192
Ratio Bone/Pancreas ([1]; 8 days p.i.): 1104
Ratio Bone/Spleen ([1]; 8 days p.i.): 246
Ratio Bone/Testes ([1]; 8 days p.i.): 1214
Ratio Bone/Thymus ([1]; 8 days p.i.): 933
Biodistribution of radioactivity, Adipose tissue [1, 5]: 0.004 SUV
Biodistribution of radioactivity, Adrenal gland [1, 5]: 0.033 SUV
Biodistribution of radioactivity, Blood [1, 5]: 0.001 SUV
Biodistribution of radioactivity, Brain [1, 5]: 0.014 SUV
Biodistribution of radioactivity, Femur [1, 5]: 5.197 SUV
Biodistribution of radioactivity, Harderian gland [1, 5]: 0.113 SUV
Biodistribution of radioactivity, Heart [1, 5]: 0.008 SUV
Biodistribution of radioactivity, Kidneys [1, 5]: 0.088 SUV
Biodistribution of radioactivity, Liver [1, 5]: 0.027 SUV
Biodistribution of radioactivity, Lung [1, 5]: 0.008 SUV
Biodistribution of radioactivity, Muscle [1, 5]: 0.027 SUV
Biodistribution of radioactivity, Pancreas [1, 5]: 0.005 SUV
Biodistribution of radioactivity, Spleen [1, 5]: 0.021 SUV
Biodistribution of radioactivity, Testes [1, 5]: 0.004 SUV
Biodistribution of radioactivity, Thymus [1, 5]: 0.006 SUV
Total skeletal retention ([1]; 8 days p.i., calculated from femur activity concentration and total skeleton weight): constant over 8 days
Total skeleton retention ([1]; after 60 min, calculated from femur activity concentration and total skeleton weight): 56.3 ± 6.7 %ID
Blood half-life of the slow component (t1/2(β)) ([2]; arterial blood, single intravenous injection): 18.7 min
Metabolization in blood samples (radio-HPLC and TLC) ([2]; within a period of 120 min): no evidence of any metabolization
